Measurements published in patent US11040981B2, “Pyrrolotriazine compounds and methods of inhibiting TAM kinases” (Syros Pharmaceuticals, Inc., priority 2017, dated 2021).

Tests used:
[1] = biological target: T1, AXL (Homo sapiens, UniProt P30530); assay: TR-FRET kinase activity assay, AXL; assay type: biochemical; conditions: ATP at Km, 60 minutes
T1 sequence (P30530 26-894): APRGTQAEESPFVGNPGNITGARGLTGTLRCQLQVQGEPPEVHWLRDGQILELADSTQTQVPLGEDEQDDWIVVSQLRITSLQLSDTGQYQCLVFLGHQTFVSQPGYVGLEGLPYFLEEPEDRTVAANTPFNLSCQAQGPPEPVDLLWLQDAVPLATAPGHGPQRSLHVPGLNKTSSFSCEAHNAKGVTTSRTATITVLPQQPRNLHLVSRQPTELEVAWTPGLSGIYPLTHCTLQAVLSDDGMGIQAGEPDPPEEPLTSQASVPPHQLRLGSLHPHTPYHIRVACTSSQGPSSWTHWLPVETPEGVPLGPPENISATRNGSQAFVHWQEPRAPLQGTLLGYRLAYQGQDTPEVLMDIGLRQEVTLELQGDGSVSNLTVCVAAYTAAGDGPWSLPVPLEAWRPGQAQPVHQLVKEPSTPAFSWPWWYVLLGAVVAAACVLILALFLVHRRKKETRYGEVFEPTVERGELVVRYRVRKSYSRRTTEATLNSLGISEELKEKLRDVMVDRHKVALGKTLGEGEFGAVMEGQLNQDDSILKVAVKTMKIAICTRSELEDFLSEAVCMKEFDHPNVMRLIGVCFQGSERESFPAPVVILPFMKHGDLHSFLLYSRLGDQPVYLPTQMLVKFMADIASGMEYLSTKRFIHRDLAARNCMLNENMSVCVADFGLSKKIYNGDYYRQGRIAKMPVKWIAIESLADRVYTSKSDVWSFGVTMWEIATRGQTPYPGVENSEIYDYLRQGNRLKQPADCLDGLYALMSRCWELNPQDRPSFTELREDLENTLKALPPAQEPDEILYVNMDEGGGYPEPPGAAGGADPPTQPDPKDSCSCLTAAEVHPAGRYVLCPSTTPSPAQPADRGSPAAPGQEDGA
Summary of the method: (§1)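 Inhibition is measured as loss of phospho-peptide formation: kinase, fluorescent tyrosine peptide and compound are combined, ATP is added at Km, and the reaction proceeds 60 min at RT in pH 7.5 HEPES buffer. An EDTA stop and Eu-labelled phospho-specific antibody allow TR-FRET detection for IC50 fitting.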

[2] = biological target: T2, FLT3 (Homo sapiens, UniProt P36888); assay: TR-FRET kinase activity assay, FLT3; assay type: biochemical; conditions: ATP at Km, 60 minutes
T2 sequence (P36888 27-993): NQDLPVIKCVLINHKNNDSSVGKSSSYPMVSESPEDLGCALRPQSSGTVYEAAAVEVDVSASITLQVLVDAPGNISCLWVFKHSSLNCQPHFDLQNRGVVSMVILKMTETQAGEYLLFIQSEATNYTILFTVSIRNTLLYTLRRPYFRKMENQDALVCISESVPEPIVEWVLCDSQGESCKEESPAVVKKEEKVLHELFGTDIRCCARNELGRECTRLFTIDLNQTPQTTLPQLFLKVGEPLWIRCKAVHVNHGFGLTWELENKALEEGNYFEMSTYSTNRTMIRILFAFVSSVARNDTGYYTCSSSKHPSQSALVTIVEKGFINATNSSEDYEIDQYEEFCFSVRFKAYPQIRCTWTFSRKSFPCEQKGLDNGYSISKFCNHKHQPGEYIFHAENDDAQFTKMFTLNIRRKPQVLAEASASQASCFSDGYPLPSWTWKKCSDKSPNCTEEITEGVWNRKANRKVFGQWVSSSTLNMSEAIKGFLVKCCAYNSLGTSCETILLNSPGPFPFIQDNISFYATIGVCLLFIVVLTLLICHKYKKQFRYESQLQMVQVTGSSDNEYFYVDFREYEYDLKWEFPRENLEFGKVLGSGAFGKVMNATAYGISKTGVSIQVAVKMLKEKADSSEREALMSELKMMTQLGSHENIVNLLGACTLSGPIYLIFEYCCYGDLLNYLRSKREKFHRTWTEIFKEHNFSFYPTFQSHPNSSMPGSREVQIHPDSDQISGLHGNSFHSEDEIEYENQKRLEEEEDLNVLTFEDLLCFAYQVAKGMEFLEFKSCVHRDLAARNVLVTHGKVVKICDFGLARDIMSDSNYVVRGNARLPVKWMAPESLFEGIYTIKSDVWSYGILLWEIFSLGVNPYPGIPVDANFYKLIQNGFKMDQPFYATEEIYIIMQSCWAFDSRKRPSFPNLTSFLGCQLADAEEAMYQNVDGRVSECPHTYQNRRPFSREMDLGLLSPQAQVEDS
Summary of the method: as §1

Row | SMILES | IC50 [1] | IC50 [2]
1 | COCCn1cc(-c2cc([C@H]3CC[C@H](O)CC3)n3nc(N[C@@H](C)COC)ncc23)cn1 [Compound 209] | 0.1 to 1 µM | 0.1 to 1 µM
2 | COCC(C)Nc1ncc2c(-c3ccc(-c4nnc(C)o4)cc3)cc(C3CCC(O)CC3)n2n1 (centres unmarked) [Compound 198] | 0.1 to 1 µM | 0.1 to 1 µM
3 | Cc1cc(-c2cc([C@H]3CC[C@H](O)CC3)n3nc(N[C@@H](C)COC(C)C)ncc23)ccn1 [Compound 215] | 0.1 to 1 µM | 1 to 10 µM
4 | C[C@@H](CC1CC1)Nc1ncc2c(-c3ccc(CN4CCN(C)CC4)cc3)cc([C@H]3CC[C@H](O)CC3)n2n1 [Compound 216] | ≤ 0.1 µM | ≤ 0.1 µM
5 | C[C@H](Nc1ncc2c(-c3ccc(CN4CCOCC4)cc3)cc([C@H]3CC[C@H](O)CC3)n2n1)[C@H]1CCCO1 [Compound 204] | 1 to 10 µM | 1 to 10 µM
6 | CCCCC[C@H](C)Nc1ncc2c(-c3ccc(CN4CCN(C)CC4)cc3)cc([C@H]3CC[C@H](O)CC3)n2n1 [Compound 104] | ≤ 0.1 µM | 0.1 to 1 µM

Other lines, results leading:

Row | IC50 [1] | IC50 [2] | SMILES
7 | ≤ 0.1 µM | 1 to 10 µM | COC[C@H](C)Nc1ncc2c(-c3cnn(C(C)(C)CO)c3)cc([C@H]3CC[C@H](O)CC3)n2n1 [Compound 265]
8 | ≤ 0.1 µM | 0.1 to 1 µM | COC[C@H](C)Nc1ncc2c(-c3cnn([C@@H]4CCOC4)c3)cc([C@H]3CC[C@H](O)CC3)n2n1 [Compound 242]
9 | 0.1 to 1 µM | 1 to 10 µM | COC[C@H](C)Nc1ncc2c(-c3cnnc(C)c3)cc([C@H]3CC[C@H](O)CC3)n2n1 [Compound 267]
10 | ≤ 0.1 µM | ≤ 0.1 µM | CC(CCF)Nc1ncc2c(-c3ccc(CN4CCOCC4)cc3)cc(C3CCC(O)CC3)n2n1 (centres unmarked) [Compound 244]
11 | 0.1 to 1 µM | 0.1 to 1 µM | COC[C@H](C)Nc1ncc2c(-c3cccc(CN4CC[C@@H](F)C4)c3)cc([C@H]3CC[C@H](O)CC3)n2n1 [Compound 224]
12 | 0.1 to 1 µM | 0.1 to 1 µM | COC[C@H](C)Nc1ncc2c(-c3cccc(CN4CCOCC4)c3)cc([C@H]3CC[C@H](O)CC3)n2n1 [Compound 217]
13 | 0.1 to 1 µM | 0.1 to 1 µM | COC[C@H](C)Nc1ncc2c(-c3cn(C)nc3C)cc([C@H]3CC[C@H](O)CC3)n2n1 [Compound 260]
